Experimental findings from patent publication US11752125B2, “Anti-neuroinflammatory and protective compounds in Achillea fragrantissima” (THE STATE OF ISRAEL MINISTRY OF AGRICULTURE & RURAL …, priority 2013, dated 2023) are described below.

One assay concerns primary astrocytes. In words: Protection of astrocytes from H2O2-induced cell death (LDH). Format: cell-based, rat. Particulars: LDH 20 h later. As to the method: Primary cultures of astrocytes were prepared from cerebral cortices of 1-2 day-old neonatal Wistar rats as described (Elmann et al., 2011b). Fourteen days old astrocytes were used in the experiments. The research was conducted in accordance with the NIH guide for the care and use of laboratory animals, and was approved by the Institutional Animal Care and Use Committee of The Volcani Center, Agricultural Research Organization (IL-135/07, approval date Apr. 11, 2007). All efforts were made to minimize animal suffering and to reduce the number of animals used.
Astrocytes were re-plated at 24-well poly-D-lysine-coated plastic plates at a density of 1×10^5/well, in DMEM w/o Phenol Red containing 2% FBS, 2 mM glutamine, 100 U/mL penicillin, and 100 μg/mL streptomycin. H2O2 in the presence or absence of TTF were added, and cell viability was determined using a commercial colorimetric assay (Roche Applied Science, Germany) according to the manufacturer's instructions. This assay is based on the measurement of lactate dehydrogenase (LDH) activity released from the cytosol of damaged cells into the incubation medium. The absorbance was measured at 492 nm in a plate reader. The percentage of cytotoxicity was calculated according to the following equation, where the “ATriton-x treated cells” is the maximum releasable LDH in the cells:
In order to characterize the ability of TTF to protect against H2O2-induced astrocytic cell death, inventors assessed changes in cell viability using a model in which oxidative stress was induced by the addition of H2O2 to cultures of primary astrocytes. The concentration of H2O2 used in experiments (175-200 μM) resembles the concentration reported in rat striatum under ischemic conditions (Hyslop et al., 1995). […] Following preincubation, H2O2 was added, and cytotoxicity was determined 20 h later using the LDH assay. […] It should be noted that at all concentrations tested, the cytotoxicity of this flavonoid by itself to astrocytes was very low (<11%) as was determined by the LDH method (FIG. 2C). […] The protective activity of TTF was also compared to that of memantine, which is used as a drug for the treatment of Alzheimer's disease.
1. Produce a primary culture of rat brain glial cells according to the method described in “Protective effects of the essential oil of salvia fruticosa and its constituents on astrocytic susceptibility to hydrogen peroxide-induced cell death”. 2009. A. Elmann, S. Mordechay, M. Rindner, O. Larkov, M. Elkabetz, U. Ravid. Journal of agricultural and food chemistry. 57(15):6636-41; 2. Separate astrocytes from other cell types in the culture according to the method described in “Protective effects of the essential oil of salvia fruticosa and its constituents on astrocytic susceptibility to hydrogen peroxide-induced cell death”. 2009. A. Elmann, S. Mordechay, M. Rindner, O. Larkov, M. Elkabetz, U. Ravid. Journal of agricultural and food chemistry. 57(15):6636-41; 3. Incubate the cultured astrocytes (37° C., 5% CO2) for 2 hours with freshly diluted TTF or AcA of the invention; 4. Add 175-200 micromolars of freshly diluted H2O2; 5. Incubate the culture for 20-24 hr (37° C., 5% CO2); 6. Measure cell cytotoxicity and viability by the colorimetric lactate dehydrogenase (LDH) assay (Roche Applied science) according to the manufacturer's instructions, and the crystal violet cell staining as follows: 7. Gently draw out medium from plate; 8. Transfer plate to a chemical hood; 9. Dispense 150 μl 5% formaldehyde (in PBS) to each well and incubate 15 min at RT; 10. Pour out formaldehyde to chemical waste and gently rinse under running tap water; 11. Remove excess water by tapping plate on a tissue paper; 12. Dispense 150 μl crystal violet solution (10 gr/liter, in water) to each well; 13. Incubate 15 min at RT (in the chemical hood); 14. Pour out crystal violet to chemical waste and gently rinse under running tap water until all residual dye is removed; 15. Tap plate on a tissue paper to remove remaining water; 16. […]

Another assay deals with IL-1β. The experiment in a line: IL-1β secretion from LPS-stimulated microglial cells (ELISA). Format: cell-based, rat. Particulars: LPS 100 ng/mL, 24 h. As to the method: Cultures of primary rat microglial cells were prepared from cerebral cortices of 1-2 day-old neonatal Wistar rats as described. Microglial cells were seeded at 24-well plastic plates at 1×10^5/well in RPMI-1640 containing 2% FBS, 2 mM glutamine, 100 U/mL penicillin, 100 µg/mL streptomycin, 1 mM sodium pyruvate, and 50 μM β-mercaptoethanol. Cells were cultured for 36 h before treatments. The research was conducted in accordance with the NIH guide for the care and use of laboratory animals, and was approved by the Institutional Animal Care and Use Committee of The Volcani Center, Agricultural Research Organization (IL-135/07, approval date Apr. 11, 2007). All efforts were made to minimize animal suffering, and to reduce the number of animals used.
For IL-1β measurements, 3.5×10^4 cells/well were plated on a 24-well tissue culture plate. After 24 h of incubation in DMEM containing 10% FBS, cells were stimulated with LPS (100 ng/mL) and treated with different concentrations of achillolide A. Conditioned media were collected twenty four hours later, and were tested with a rat IL1β ELISA kit (Novus Biologicals; CO, USA), according to the manufacturer's instructions.
2. Plate microglial cells (3.5×10^4 cells/well) on a 24-well tissue culture plate, in DMEM containing 10% FBS, 2 mM glutamine, 100 U/ml penicillin and 100 micrograms/mL streptomycin;
Microglial cells were treated with different concentrations of TTF, followed by stimulation with LPS (100 ng/mL). After 24 h, conditioned media were collected and tested for cytokine levels by ELISA. Cell viability was determined using the crystal violet assay (FIG. 9C). Values represent the means±SEM (n=4 for each treatment).
Microglial cells were treated with 20 μg/mL of achillolide A, followed by stimulation with LPS (4.5 ng/mL). After 5 h the levels of the indicated transcripts were measured by quantitative real-time PCR and the relative quantity (RQ) of the different transcripts were determined. […] The results are expressed as percentages relative to LPS-stimulated cells. […]
Background: In an ELISA, binding on a coated surface is turned into a signal by an enzyme label.

Where [1] appears, read: 1 μM (lowest concentration tested), compound added 2 h before H2O2.
Where [2] appears, read: 8 μM compound added 2 h before H2O2.

For `CC12CC3CC(C)(C1)CC(N)(C3)C2` [memantine, reference compound], the “protection against H2O2-induced cell death” value with primary astrocytes (setting [1]) was 48%; in the assay on primary astrocytes (setting [2]) it was 58%.
As to `C=C1CCC2=C(CO)C(=O)O[C@H]2/C=C(\C)[C@H](OC(C)=O)CC1=O` [achillolide A], in the assay on IL-1β, the “inhibition of IL-1β secretion” value is listed as 59%. Also, the “protection of astrocytes from H2O2-induced cell death” value in the assay with primary astrocytes (H2O2 200 μM added 2 h after compound) is recorded as “protects”.
Take `COc1cc(-c2oc3cc(OC)c(OC)c(O)c3c(=O)c2O)ccc1O` [TTF, 3,5,4′-trihydroxy-6,7,3′-trimethoxyflavone]: in the assay with IL-1β, the “effect on LPS-elicited IL-1β secretion” value is listed as “markedly inhibited”. The “protection against H2O2-induced cell death” value is 24% in the assay with primary astrocytes (setting [1]) and 92% with primary astrocytes (setting [2]).
For the compound `O=c1c(O)c(-c2ccc(O)c(O)c2)oc2cc(O)cc(O)c12` [quercetin, 3,3′,4′,5,7-Pentahydroxyflavone, reference compound], the “protection against H2O2-induced cell death” value with primary astrocytes (10 μM compound added 2 h before H2O2) amounted to 36%.
